Data reported in patent US9650395B2, “Antibacterial compounds and methods for use” (PTC Therapeutics, Inc., priority 2011, dated 2017).
Where a name gives a salt, the structure may show the parent alone. Read-outs that look alike come from different tables or passages of the source.

Key:
[1] = system: control Gram-negative E. coli 25922 strain; assay: Antibacterial activity, microbroth dilution MIC, E. coli 25922; type: cell-based, Escherichia coli; conditions: E. coli 25922, microbroth dilution; for MIC: Escherichia coli, read-out: MIC, 25922
[2] = system: E. coli ELZ4251 (MDR clinical isolate); assay: Antibacterial activity, MIC, MDR E. coli ELZ4251; type: cell-based, Escherichia coli; conditions: E. coli ELZ4251, MDR clinical isolate; for MIC: Escherichia coli, read-out: MIC ELZ4251
[3] = system: Klebsiella pneumoniae (K. pneumoniae) 35657; assay: Antibacterial activity, MIC, K. pneumoniae 35657; type: cell-based; conditions: for MIC: Klebsiella pneumoniae
[4] = system: Haemophilus influenzae (H. influenzae) 49247; assay: Antibacterial activity, MIC, H. influenzae 49247; type: cell-based; conditions: H. influenzae 49247; for MIC: Haemophilus influenzae, read-out: MIC 49247
How it was run: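 A microbroth dilution method gave the minimum inhibitory concentration for each compound against H. influenzae 49247, a Gram-negative bacterium. MIC means the smallest concentration of drug at which no macroscopically visible bacterial growth appears under the conditions of the test.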

[5] = system: resistant K. pneumoniae MXX1232 (MDR clinical isolate); assay: Antibacterial activity, MIC, resistant K. pneumoniae MXX1232; type: cell-based, Klebsiella pneumoniae; conditions: resistant K. pneumoniae MMX1232, MDR clinical isolate; for MIC: Klebsiella pneumoniae, read-out: MIC MMX1232
[6] = system: Moraxella catarrhalis (M. catarrhalis) 25238; assay: Antibacterial activity, MIC, M. catarrhalis 25238; type: cell-based; conditions: M. catarrhalis 25238; for MIC: Moraxella catarrhalis, read-out: MIC 25238
[7] = system: super sensitive Gram-negative Escherichia coli (E. coli) BAS849; assay: Antibacterial activity, microbroth dilution MIC, E. coli BAS849; type: cell-based; conditions: for MIC: Escherichia coli, read-out: MIC, BAS849
[8] = system: quinolone resistant E. coli LZ3111; assay: Antibacterial activity, MIC, quinolone resistant E. coli LZ3111; type: cell-based, Escherichia coli; conditions: for MIC: Escherichia coli, read-out: MIC, LZ3111
Excerpt: (§1) The antibacterial activity from a microbroth dilution method may be presented as the minimum inhibitory concentration (MIC in […]). The MIC value is the lowest concentration of a drug which prevents macroscopically visible bacterial growth under test conditions.
Mutations in these regions are known to confer a high level resistance to the quinolone class of antibiotics.

[9] = system: E. coli ELZ4000 (MDR clinical isolate); assay: Antibacterial activity, MIC, MDR E. coli ELZ4000; type: cell-based, Escherichia coli; conditions: E. coli ELZ4000, MDR clinical isolate; for MIC: Escherichia coli, read-out: MIC ELZ4000
[10] = system: Neisseria meningitidis (N. meningitidis) 13090; assay: Antibacterial activity, MIC, N. meningitidis 13090; type: cell-based; conditions: N. meningitidis 13090; for MIC: Neisseria meningitidis, read-out: MIC 13090
[11] = system: resistant A. baumannii MXX2240 (MDR clinical isolate); assay: Antibacterial activity, MIC, resistant A. baumannii MXX2240; type: cell-based, Acinetobacter baumannii; conditions: resistant A. baumannii MMX2240, MDR clinical isolate; for MIC: Acinetobacter baumannii, read-out: MIC MMX2240
[12] = system: Gram-positive Staphylococcus aureus (S. aureus) 29213; assay: Antibacterial activity, microbroth dilution MIC, S. aureus 29213; type: cell-based; conditions: S. aureus 29213, microbroth dilution; for MIC: Staphylococcus aureus, read-out: MIC, 29213
[13] = system: Pseudomonas aeruginosa (P. aeruginosa) 27853; assay: Antibacterial activity, MIC, P. aeruginosa 27853; type: cell-based; conditions: P. aeruginosa 27853; for MIC: Pseudomonas aeruginosa, read-out: MIC 27853
Excerpt: as §1
Antibacterial activity of test compounds against the Gram-negative bacterium Pseudomonas aeruginosa (P. aeruginosa) 27853 is shown in Table 5.

[14] = system: Acinetobacter baumannii (A. baumannii) BAA747; assay: Antibacterial activity, MIC, A. baumannii BAA747; type: cell-based; conditions: A. baumannii BAA747; for MIC: Acinetobacter baumannii, read-out: MIC BAA747
[15] = E. coli BAS849, microbroth dilution

Compound	MIC [1] [µg/mL]	MIC [2] [µg/mL]	MIC [3] [µg/mL]	MIC [4] [µg/mL]	MIC [5] [µg/mL]	MIC [6] [µg/mL]	MIC [7, 15] [µg/mL]	MIC [8] [µg/mL]	MIC [9] [µg/mL]	MIC [10] [µg/mL]	MIC [11] [µg/mL]	MIC [12] [µg/mL]	MIC [13] [µg/mL]	MIC [14] [µg/mL]	also measured
CCc1c(-c2ccc(N3C[C@H]4CCC[C@H](N)[C@H]4C3)cc2)[nH]c(=O)c(C(=O)O)c1O.Cl [Cpd 258, 6-{4-[(3aR,4S,7aS)-4-aminooctahydro-2H-isoindol-2-yl]phenyl}-5-ethyl-4-hydroxy-2-oxo-1,2-dihydropyridine-3-carboxylic acid hydrochloride]	1 to 3.5	3.5 to 12.5	1 to 3.5	3.5 to 12.5	12.5 to 150	1 to 3.5	< 1	< 1	12.5 to 150	< 1	3.5 to 12.5	3.5 to 12.5	12.5 to 150	12.5 to 150	
Cc1c(-c2ccc(N3C[C@@H]4[C@@H](N)[C@@H]4C3)cc2)[nH]c(=O)c(C(=O)O)c1O.Cl [Cpd 259, 6-{4-[(1R,5S,6s)-6-amino-3-azabicyclo[3.1.0]hex-3-yl]phenyl}-4-hydroxy-5-methyl-2-oxo-1,2-dihydropyridine-3-carboxylic acid hydrochloride]															MIC, 25922 [1]: *** (an MIC value between >1.0 μg/mL and ≦3.5 μg/mL is indicated by three stars (***)); MIC ELZ4251 [2]: ** (an MIC value between >3.5 μg/mL and ≦12.5 μg/mL is indicated by two stars (**)); MIC 35657 [3]: *** (an MIC value between >1.0 μg/mL and ≦3.5 μg/mL is indicated by three stars (***)); MIC 49247 [4]: *** (an MIC value between >1.0 μg/mL and ≦3.5 μg/mL is indicated by three stars (***)); MIC MMX1232 [5]: * (an MIC value between >12.5 μg/mL and ≦150 μg/mL is indicated by a single star (*)); MIC 25238 [6]: ** (an MIC value between >3.5 μg/mL and ≦12.5 μg/mL is indicated by two stars (**)); MIC, BAS849 [7, 15]: **** (an MIC value of ≦1.0 μg/mL is indicated by four stars (****)); MIC, LZ3111 ([8]; quinolone resistant E. coli LZ3111): *** (an MIC value between >1.0 μg/mL and ≦3.5 μg/mL is indicated by three stars (***)); MIC ELZ4000 [9]: ** (an MIC value between >3.5 μg/mL and ≦12.5 μg/mL is indicated by two stars (**)); MIC 13090 [10]: **** (an MIC value of ≦1.0 μg/mL is indicated by four stars (****)); MIC MMX2240 [11]: * (an MIC value between >12.5 μg/mL and ≦150 μg/mL is indicated by a single star (*)); MIC, 29213 [12]: * (an MIC value between >12.5 μg/mL and ≦150 μg/mL is indicated by a single star (*)); MIC 27853 [13]: * (an MIC value between >12.5 μg/mL and ≦150 μg/mL is indicated by a single star (*)); MIC BAA747 [14]: ** (an MIC value between >3.5 μg/mL and ≦12.5 μg/mL is indicated by two stars (**))
CCc1c(-c2ccc(N3C[C@H]4CCC[C@@H](N(C)C)[C@H]4C3)cc2)[nH]c(=O)c(C(=O)O)c1O.Cl [Cpd 261, 6-{4-[(3aR,4R,7aS)-4-(dimethylamino)octahydro-2H-isoindol-2-yl]phenyl}-5-ethyl-4-hydroxy-2-oxo-1,2-dihydropyridine-3-carboxylic acid hydrochloride]	3.5 to 12.5	3.5 to 12.5	12.5 to 150	12.5 to 150	12.5 to 150	3.5 to 12.5	< 1	1 to 3.5	12.5 to 150	< 1	12.5 to 150	3.5 to 12.5	12.5 to 150	12.5 to 150	
CCc1c(-c2ccc(N3C[C@H]4CCC[C@@H](N)[C@H]4C3)cc2)[nH]c(=O)c(C(=O)O)c1O.O=C(O)C(F)(F)F [Cpd 262, 6-{4-[(3aR,4R,7aS)-4-aminooctahydro-2H-isoindol-2-yl]phenyl}-5-ethyl-4-hydroxy-2-oxo-1,2-dihydropyridine-3-carboxylic acid trifluoroacetate]	1 to 3.5	1 to 3.5	1 to 3.5	3.5 to 12.5	12.5 to 150	3.5 to 12.5		< 1	1 to 3.5	1 to 3.5	1 to 3.5	3.5 to 12.5	12.5 to 150	3.5 to 12.5	MIC [7]: < 1 µg/mL
CCc1c(-c2ccc(N3C[C@H]4CC[C@@H](N(C)C)[C@H]4C3)cc2)[nH]c(=O)c(C(=O)O)c1O.Cl [Cpd 263, 6-{4-[(3aR,4R,6aS)-4-(dimethylamino)hexahydrocyclopenta[c]pyrrol-2(1H)-yl]phenyl}-5-ethyl-4-hydroxy-2-oxo-1,2-dihydropyridine-3-carboxylic acid hydrochloride]	1 to 3.5	12.5 to 150	3.5 to 12.5	3.5 to 12.5	12.5 to 150	1 to 3.5	< 1	3.5 to 12.5	12.5 to 150	1 to 3.5	12.5 to 150	12.5 to 150	12.5 to 150	3.5 to 12.5	
CCc1c(-c2ccc(N3C[C@H]4CC[C@@H](N)[C@H]4C3)cc2)[nH]c(=O)c(C(=O)O)c1O.Cl [Cpd 264, 6-{4-[(3aR,4R,6aS)-4-aminohexahydrocyclopenta[c]pyrrol-2(1H)-yl]phenyl}-5-ethyl-4-hydroxy-2-oxo-1,2-dihydropyridine-3-carboxylic acid hydrochloride]	1 to 3.5	3.5 to 12.5	3.5 to 12.5	3.5 to 12.5	12.5 to 150	1 to 3.5	< 1	1 to 3.5	12.5 to 150	< 1	12.5 to 150	3.5 to 12.5	12.5 to 150	12.5 to 150	
CCc1c(-c2ccc(N3C[C@H]4CC[C@H](N)[C@H]4C3)cc2)[nH]c(=O)c(C(=O)O)c1O.O=C(O)C(F)(F)F [Cpd 265, 6-{4-[(3aR,4S,6aS)-4-aminohexahydrocyclopenta[c]pyrrol-2(1H)-yl]phenyl}-5-ethyl-4-hydroxy-2-oxo-1,2-dihydropyridine-3-carboxylic acid trifluoroacetate]	3.5 to 12.5	3.5 to 12.5	3.5 to 12.5	12.5 to 150	12.5 to 150	3.5 to 12.5		3.5 to 12.5	12.5 to 150	1 to 3.5	12.5 to 150	12.5 to 150	12.5 to 150	12.5 to 150	MIC [7]: 1 to 3.5 µg/mL
CCc1c(-c2ccc(N3C[C@H]4CCC[C@H](NC)[C@H]4C3)cc2)[nH]c(=O)c(C(=O)O)c1O.Cl [Cpd 268, 5-ethyl-4-hydroxy-6-{4-[(3aR,4S,7aS)-4-(methylamino)octahydro-2H-isoindol-2-yl]phenyl}-2-oxo-1,2-dihydropyridine-3-carboxylic acid hydrochloride]	3.5 to 12.5	3.5 to 12.5	12.5 to 150	12.5 to 150	12.5 to 150	3.5 to 12.5	1 to 3.5	1 to 3.5	12.5 to 150	3.5 to 12.5	12.5 to 150	3.5 to 12.5	12.5 to 150	12.5 to 150	
CCc1c(-c2ccc(N3C[C@@H]4[C@H](C3)[C@H]4NC)cc2)[nH]c(=O)c(C(=O)O)c1O [Cpd 270, 5-ethyl-4-hydroxy-6-{4-[(1R,5S,6s)-6-(methylamino)-3-azabicyclo[3.1.0]hex-3-yl]phenyl}-2-oxo-1,2-dihydropyridine-3-carboxylic acid hydrochloride]	< 1	3.5 to 12.5	< 1	< 1	12.5 to 150	< 1	< 1	1 to 3.5	12.5 to 150	< 1	12.5 to 150	3.5 to 12.5	1 to 3.5	< 1	
